Measured values taken from PMC7404261 (2020).

How the values were obtained:
[1] = system: ssDNA-G4-Rv (DNA, single strand) ACCCCTTCCGCGCGCCTTTTCCCG; assay: ethidium bromide staining of nondenaturing gel; conditions: K+ (100 mM KCl annealing, 10 mM KCl gel); Tris/HCl pH 7.5 annealing; 1x TBE gel; 1 µg/mL EthBr after ThT staining
[2] = system: dsDNA-G4 (DNA, duplex) CGGGAAAAGGCGCGCGGAAGGGGT/ACCCCTTCCGCGCGCCTTTTCCCG; assay: ethidium bromide staining of nondenaturing gel; conditions: K+ (100 mM KCl annealing, 10 mM KCl gel); Tris/HCl pH 7.5 annealing; 1x TBE gel; 1 µg/mL EthBr after ThT staining
[3] = system: dsDNA-G4 (DNA, duplex) CGGGAAAAGGCGCGCGGAAGGGGT/ACCCCTTCCGCGCGCCTTTTCCCG; assay: ThT staining of nondenaturing gel; conditions: K+ (100 mM KCl annealing, 10 mM KCl gel); Tris/HCl pH 7.5 annealing; 1x TBE gel; stained with 5 µM ThT
[4] = system: ssDNA-G4-Rv (DNA, single strand) ACCCCTTCCGCGCGCCTTTTCCCG; assay: ThT staining of nondenaturing gel; conditions: K+ (100 mM KCl annealing, 10 mM KCl gel); Tris/HCl pH 7.5 annealing; 1x TBE gel; stained with 5 µM ThT
[5] = system: HpTYMS-G4-T (DNA, hairpin) GGGAAAAGGCGCGCGGAAGGGGTTTTTGGGGAAGGCGCGCGGAAAAGGG; assay: ThT staining of nondenaturing gel; conditions: K+ (100 mM KCl annealing, 10 mM KCl gel); Tris/HCl pH 7.5 annealing; 1x TBE gel; stained with 5 µM ThT
[6] = system: HpTYMS-G4-T-WC (DNA, hairpin) CCCTTTTCCGCGCGCCTTCCCCTTTTTGGGGAAGGCGCGCGGAAAAGGG; assay: ThT staining of nondenaturing gel; conditions: K+ (100 mM KCl annealing, 10 mM KCl gel); Tris/HCl pH 7.5 annealing; 1x TBE gel; stained with 5 µM ThT
[7] = system: ssDNA-G4-Fw (DNA, G4) CGGGAAAAGGCGCGCGGAAGGGGT; assay: ThT staining of nondenaturing gel; conditions: K+ (100 mM KCl annealing, 10 mM KCl gel); Tris/HCl pH 7.5 annealing; 1x TBE gel; stained with 5 µM ThT

SMILES	binding [1]	binding [2]	binding [3]	binding [4]	binding [5]	binding [6]	binding [7]
CC[n+]1c(-c2ccccc2)c2cc(N)ccc2c2ccc(N)cc21	yes	yes	–	–	–	–	–
Cc1ccc2c(c1)sc(-c1ccc(N(C)C)cc1)[n+]2C	–	–	no	no	yes	yes	yes
